Values quoted from earlier work as cited in patent US20070049498A1, “Agricultural compositions which enhance performance of herbicides” (priority 2005, published 2007).

Conditions: glyphosate in acid form

## O=C(O)CNCP(=O)(O)O [glyphosate, N-phosphonomethylglycine]
  water solubility: about 1.2%
